Laboratory results: patent publication US6642392B1 (priority 1997, dated 2003)
Read-outs that look alike come from different tables or passages of the source.

Columns and labels:
Format in all cases: in vivo
Puccinia recondita = test: Test B: wheat leaf rust, preventive spray on wheat seedlings; conditions: for Test B disease control rating: wheat leaf rust; for Test B disease control rating (100 = 100% disease control, 0 = no disease control): wheat seedlings sprayed to run-off, inoculated the following day, rating relative to controls, unmarked compounds (standard test rate)
How it was run: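 Wheat seedlings were sprayed to run-off with compound (3% acetone, 250 ppm Trem 014), then inoculated with P. recondita spores the next day. They were held 24 h saturated at 20 °C, then 6 days at 20 °C. Ratings are 0–100% disease control versus controls.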

Phytophthora infestans = conditions: for Test D disease control rating: tomato late blight; for Test D disease control rating (100 = 100% disease control, 0 = no disease control): tomato seedlings sprayed to run-off, inoculated the following day, rating relative to controls, unmarked compounds (standard test rate)
[1] = test system: Eiysiphe graminis f. sp. tritici; test: Test A: wheat powdery mildew, preventive spray on wheat seedlings; conditions: for Test A disease control rating: wheat powdery mildew; for Test A disease control rating (100 = 100% disease control, 0 = no disease control): wheat seedlings sprayed to run-off, inoculated the following day, rating relative to controls, unmarked compounds (standard test rate)
How it was run: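 Compounds (3% acetone, 250 ppm Trem 014) sprayed to run-off on wheat seedlings, inoculated next day with spore dust. Incubated 7 days at 20° C before disease rating, 0–100% control relative to untreated controls.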

Botrytis cinerea = test: Test E: gray mold, preventive spray on cucumber seedlings; conditions: for Test E disease control rating: gray mold on cucumber; for Test E disease control rating (100 = 100% disease control, 0 = no disease control): cucumber seedlings sprayed to run-off, inoculated the following day, rating relative to controls, unmarked compounds (standard test rate)
How it was run: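 Compounds in 3% acetone were suspended with 250 ppm Trem 014 surfactant and sprayed to run-off on cucumber seedlings. B. cinerea spores were inoculated next day, then 48 h saturated humidity at 20° C and 5 days at 20° C. Disease control rated 0–100% versus controls.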

Pyricularia oryzae = conditions: for Test C disease control rating: rice blast; for Test C disease control rating (100 = 100% disease control, 0 = no disease control): rice seedlings sprayed to run-off, inoculated the following day, rating relative to controls, unmarked compounds (standard test rate)
[2] = 100 = 100% disease control, 0 = no control, unmarked entries (standard test concentration)
[3] = 100 = 100% disease control, 0 = no control relative to controls, unmarked entries (standard test concentration)

Structure (SMILES)	Test B disease control rating (Puccinia recondita; [2])	Test D disease control rating (Phytophthora infestans; [2])	Test A disease control rating [1, 3]	Test E disease control rating (Botrytis cinerea; [2])	Test C disease control rating (Pyricularia oryzae; [2])	also measured
CCC1(C(=O)NC(C)COc2ccccc2C(C)C)C(C)C1(Cl)Cl (centres unmarked) [compound 99]						Test B disease control rating (Puccinia recondita; tested at 40 ppm): 0%; Test D disease control rating (Phytophthora infestans; tested at 40 ppm): 68%; Test A disease control rating ([1]; tested at 40 ppm): 83%; Test E disease control rating (Botrytis cinerea; tested at 40 ppm): 0%; Test C disease control rating (Pyricularia oryzae; tested at 40 ppm): 0%
C[C@H](COc1cc(F)cc(F)c1)NC(=O)C(C#N)C(C)(C)C (single isomer, unassigned) [184b]	0%	9%	62%	45%	74%	
C[C@H](COc1ccc(F)cc1F)NC(=O)C(C#N)C(C)(C)C (single isomer, unassigned) [27a]	0%	81%	38%	0%	100%	
CC(COc1c(C#N)cccc1C(F)(F)F)NC(=O)C(C#N)C(C)(C)C (mixture of isomers) [compound 48]	0%	0%	0%	0%	91%	
CCC1(C(=O)NCC=Cc2ccccc2Cl)C(C)C1(Cl)Cl (centres unmarked) [compound 158]						Test B disease control rating (Puccinia recondita; tested at 40 ppm): 0%; Test D disease control rating (Phytophthora infestans; tested at 40 ppm): 0%; Test A disease control rating ([1]; tested at 40 ppm): 0%; Test E disease control rating (Botrytis cinerea; tested at 40 ppm): 0%; Test C disease control rating (Pyricularia oryzae; tested at 40 ppm): 52%
CCC1(C(=O)NCCCn2c(C)cc(C)c2C#N)C(C)C1(Cl)Cl (centres unmarked) [compound 150]	0%	0%	0%	87%	60%	
C[C@H](COc1cc(F)cc(F)c1)NC(=O)C(C#N)C(C)(C)C (single isomer, unassigned) [184a]	0%	0%	62%	6%	74%	
CCC1(C(=O)NCC=Cc2ccccc2)C(C)C1(Cl)Cl (centres unmarked) [compound 156]						Test B disease control rating (Puccinia recondita; tested at 40 ppm): 0%; Test D disease control rating (Phytophthora infestans; tested at 40 ppm): 0%; Test A disease control rating ([1]; tested at 40 ppm): 0%; Test E disease control rating (Botrytis cinerea; tested at 40 ppm): 0%; Test C disease control rating (Pyricularia oryzae; tested at 40 ppm): 0%
CC(C)(C)C(C#N)C(=O)NC/C=C/c1ccccc1Cl (racemic) [compound 179]	0%	23%	35%	58%	74%	
C[C@H](COc1cc(F)c(Cl)cc1F)NC(=O)C(C#N)C(C)(C)C (single isomer, unassigned) [173b]	0%	91%	0%	0%	90%	
CC(COc1ccccc1SC(F)(F)C(F)F)NC(=O)C(C#N)C(C)(C)C (mixture of isomers) [compound 202]	0%	0%	0%	0%	53%	
CCC1(C(=O)NC(C)COc2cccc(Cl)c2Cl)C(C)C1(Cl)Cl (centres unmarked) [compound 111]						Test B disease control rating (Puccinia recondita; tested at 40 ppm): 0%; Test D disease control rating (Phytophthora infestans; tested at 40 ppm): 90%; Test A disease control rating ([1]; tested at 40 ppm): 90%; Test E disease control rating (Botrytis cinerea; tested at 40 ppm): 0%; Test C disease control rating (Pyricularia oryzae; tested at 40 ppm): 0%
CCC1(C(=O)NC(C)COc2cc(F)cc(F)c2Cl)C(C)C1(Cl)Cl (centres unmarked) [compound 123]						Test B disease control rating (Puccinia recondita; tested at 40 ppm): 0%; Test D disease control rating (Phytophthora infestans; tested at 40 ppm): 0%; Test A disease control rating ([1]; tested at 40 ppm): 90%; Test E disease control rating (Botrytis cinerea; tested at 40 ppm): 0%; Test C disease control rating (Pyricularia oryzae; tested at 40 ppm): 53%
CCC1(C(=O)NC(C)COc2ccc(Cl)c(Cl)c2)C(C)C1(Cl)Cl (centres unmarked) [compound 230]						Test B disease control rating (100 = 100% disease control, 0 = no disease control) (Puccinia recondita): 0%; Test D disease control rating (100 = 100% disease control, 0 = no disease control) (Phytophthora infestans): 0%; Test A disease control rating (100 = 100% disease control, 0 = no disease control) [1]: 0%; Test E disease control rating (100 = 100% disease control, 0 = no disease control) (Botrytis cinerea): 45%; Test C disease control rating (100 = 100% disease control, 0 = no disease control) (Pyricularia oryzae): 53%
CC(COc1ccccc1C(F)(F)F)NC(=O)C(C#N)C(C)(C)C (mixture of isomers) [17b]	28%	0%	38%	0%	100%	
C[C@H](COc1cccc(Br)c1)NC(=O)C(C#N)C(C)(C)C (single isomer, unassigned) [9c]	28%	51%	62%	0%	100%	
CCc1cccc(OCC(C)NC(=O)C2(CC)C(C)C2(Cl)Cl)c1 (centres unmarked) [compound 240]						Test B disease control rating (100 = 100% disease control, 0 = no disease control) (Puccinia recondita): 0%; Test D disease control rating (100 = 100% disease control, 0 = no disease control) (Phytophthora infestans): 96%; Test A disease control rating (100 = 100% disease control, 0 = no disease control) [1]: 63%; Test E disease control rating (100 = 100% disease control, 0 = no disease control) (Botrytis cinerea): 0%; Test C disease control rating (100 = 100% disease control, 0 = no disease control) (Pyricularia oryzae): 94%
C[C@H](COc1cc(F)c(F)cc1F)NC(=O)C(C#N)C(C)(C)C (single isomer, unassigned) [188a]	0%	56%	0%	0%	97%	
CC(C=Cc1ccccc1)NC(=O)C(C#N)C(C)(C)C (mixture of isomers) [compound 228]						Test B disease control rating (100 = 100% disease control, 0 = no disease control) (Puccinia recondita): 0%; Test D disease control rating (100 = 100% disease control, 0 = no disease control) (Phytophthora infestans): 7%; Test A disease control rating (100 = 100% disease control, 0 = no disease control) [1]: 95%; Test E disease control rating (100 = 100% disease control, 0 = no disease control) (Botrytis cinerea): 47%; Test C disease control rating (100 = 100% disease control, 0 = no disease control) (Pyricularia oryzae): 52%
CCC1(C(=O)NCC(C)=Cc2cc(Cl)ccc2Cl)C(C)C1(Cl)Cl (centres unmarked) [compound 270]						Test B disease control rating (100 = 100% disease control, 0 = no disease control) (Puccinia recondita): 0%; Test D disease control rating (100 = 100% disease control, 0 = no disease control) (Phytophthora infestans): 96%; Test A disease control rating (100 = 100% disease control, 0 = no disease control) [1]: 77%; Test E disease control rating (100 = 100% disease control, 0 = no disease control) (Botrytis cinerea): 0%; Test C disease control rating (100 = 100% disease control, 0 = no disease control) (Pyricularia oryzae): 91%
CCC1(C(=O)NC(C)COn2c(C#N)cc(Cl)c2C)C(C)C1(Cl)Cl (mixture of isomers) [140b]	28%	38%	63%	0%	74%	
CCC1(C(=O)NC(C)COc2cc(Br)ccc2C#N)C(C)C1(Cl)Cl (centres unmarked) [compound 246]						Test B disease control rating (100 = 100% disease control, 0 = no disease control) (Puccinia recondita): 0%; Test D disease control rating (100 = 100% disease control, 0 = no disease control) (Phytophthora infestans): 0%; Test A disease control rating (100 = 100% disease control, 0 = no disease control) [1]: 53%; Test E disease control rating (100 = 100% disease control, 0 = no disease control) (Botrytis cinerea): 0%; Test C disease control rating (100 = 100% disease control, 0 = no disease control) (Pyricularia oryzae): 97%
CC(COc1c(F)ccc(F)c1C#N)NC(=O)C(C#N)C(C)(C)C (mixture of isomers) [compound 208]	28%	45%	0%	0%	94%	
C[C@H](COc1cc(F)ccc1Cl)NC(=O)C(C#N)C(C)(C)C (single isomer, unassigned) [191a]	0%	25%	0%	85%	100%	
CC(COc1ccccc1I)NC(=O)C(C#N)C(C)(C)C (mixture of isomers) [11b]	85%	23%	77%	0%	99%	
CC(COc1c(F)ccc(F)c1C#N)NC(=O)C(C#N)C(C)C(C)(C)C (mixture of isomers) [compound 279]						Test B disease control rating (100 = 100% disease control, 0 = no disease control) (Puccinia recondita): 0%; Test D disease control rating (100 = 100% disease control, 0 = no disease control) (Phytophthora infestans): 0%; Test A disease control rating (100 = 100% disease control, 0 = no disease control) [1]: 56%; Test E disease control rating (100 = 100% disease control, 0 = no disease control) (Botrytis cinerea): 0%; Test C disease control rating (100 = 100% disease control, 0 = no disease control) (Pyricularia oryzae): 0%
CC(C=Cc1ccccc1F)NC(=O)C(C#N)C(C)(C)C (mixture of isomers) [compound 308]						Test B disease control rating (100 = 100% disease control, 0 = no disease control) (Puccinia recondita): 28%; Test D disease control rating (100 = 100% disease control, 0 = no disease control) (Phytophthora infestans): 45%; Test A disease control rating (100 = 100% disease control, 0 = no disease control) [1]: 86%; Test E disease control rating (100 = 100% disease control, 0 = no disease control) (Botrytis cinerea): 0%; Test C disease control rating (100 = 100% disease control, 0 = no disease control) (Pyricularia oryzae): 100%
CCC1(C(=O)NCC=Cc2ccccc2F)C(C)C1(Cl)Cl (centres unmarked) [compound 157]						Test B disease control rating (Puccinia recondita; tested at 40 ppm): 0%; Test D disease control rating (Phytophthora infestans; tested at 40 ppm): 0%; Test A disease control rating ([1]; tested at 40 ppm): 0%; Test E disease control rating (Botrytis cinerea; tested at 40 ppm): 0%; Test C disease control rating (Pyricularia oryzae; tested at 40 ppm): 97%
